Test results taken from PMC8279416, “Structural Fine-Tuning of Desmuramylpeptide NOD2 Agonists Defines Their In Vivo Adjuvant Activity” (Journal of Medicinal Chemistry, 2021).

How the values were obtained:
NOD2 = biological target: T1, NOD2 (Homo sapiens, UniProt Q9HC29); assay: HEK-Blue NOD2 cell line reporter assay (NF-κB-inducible SEAP); format: cell-based; details: for EC50 / NOD2 activity at 2 μM (fold increase): HEK-Blue NOD2 cells; for NOD2 activity at 2 μM (fold increase): NF-κB transcriptional (SEAP) activity relative to 0.1% DMSO
T1 construct: host or cells: HEK-Blue NOD2 cells (HEK293-derived)

PBMCs = assay: RNA sequencing of PBMCs, differential expression analysis; format: cell-based, human; details: 2 μM, 18 h; for Number of genes with significantly modulated expression: FDR <0.05, fold change >1.5 or <0.667 vs 0.1% DMSO; for Number of differentially expressed genes: down-regulated / Number of differentially expressed genes: up-regulated: vs 0.1% DMSO
Protocol: Based on the potent in vitro NOD2 activation by 68 and the PBMC cytotoxicity activation by 75, we explored the effects of 68 and 75 in terms of induction at the transcriptional level. Next-generation sequencing of RNA isolated from PBMCs was carried out following their stimulation for 18 h with 68 or 75 (2 μM). After applying a low expression filter, the remaining 19046 genes from the desmuramylpeptide-treated samples were compared to the vehicle-treated controls (0.1% DMSO).
Peripheral blood mononuclear cells from three independent donors were seeded (2 × 10^6 cells/mL) in 24-well plates in 1 mL of growth medium and treated with the compounds (2 μM) or vehicle (0.1% DMSO) for 18 h at 37 °C in 5% CO2. The cells were washed with phosphate-buffered saline, resuspended in RNAlater RNA stabilization solution (Sigma-Aldrich, St. Louis, MO, U.S.A.), and stored at −80 °C. RNA extraction, library construction, and sequencing were conducted by Genewiz (Leipzig, Germany).
Briefly, total RNA was extracted using the RNeasy mini kit (Qiagen, Hilden, Germany) according to the manufacturer protocol. RNA samples were quantified using Qubit 4.0 Fluorometer (Life Technologies, Carlsbad, CA, U.S.A.), and RNA integrity was checked with RNA Kit on a 5600 Fragment Analyzer (Agilent Technologies, Palo Alto, CA, U.S.A.). All RNA samples were of high quality with an RNA quality number of ≥9.4. RNA sequencing libraries were prepared using NEBNext Ultra II RNA library prep kit for Illumina according to the manufacturer instructions (New England Biolabs, Ipswich, MA, U.S.A.). Libraries were loaded on the Illumina NovaSeq 6000 instrument, and clustering was performed directly on the NovaSeq before sequencing according to the manufacturer instructions. The samples were sequenced using a 2 × 150 paired end configuration. Image analysis and base calling were conducted by the NovaSeq Control Software. Raw sequence data (.bcl files) generated from the Illumina NovaSeq were converted into fastq files and demultiplexed using Illumina’s bcl2fastq 2.19 software. One mismatch was allowed for index sequence identification. After investigating the quality of the raw data, sequence reads were trimmed to remove possible adapter sequences and nucleotides with poor quality using Trimmomatic v.0.36. The trimmed reads were mapped to the Homo sapiens reference genome as available on ENSEMBL, using STAR aligner v.2.5.2b, thus generating BAM files. Unique gene hit counts were calculated using feature counts from the Subread package v.1.5.2. Only unique reads that fell within exon regions were counted. After extraction of gene hit counts, the gene hit counts table was used for downstream differential expression analysis.
Differential expression analysis was performed with iDEP.91.[128] First, a low expression filter was applied (0.5 counts per million in at least 1 library). The remaining gene counts were normalized by counts per million in the EdgeR package, with a pseudocount of 4. Differential gene expression analysis was performed with the DESeq2 method, using a false discovery rate <0.05 and a gene expression fold change >1.5 or <0.667 as the cutoff values. The list of differentially expressed genes was then used as input for gene annotation and pathway enrichment analysis with Metascape.[94]

[1] = 18 h, 7 or 8 concentrations 1 nM to 20 μM, mean ± SEM

T1 sequence (Q9HC29 whole entry): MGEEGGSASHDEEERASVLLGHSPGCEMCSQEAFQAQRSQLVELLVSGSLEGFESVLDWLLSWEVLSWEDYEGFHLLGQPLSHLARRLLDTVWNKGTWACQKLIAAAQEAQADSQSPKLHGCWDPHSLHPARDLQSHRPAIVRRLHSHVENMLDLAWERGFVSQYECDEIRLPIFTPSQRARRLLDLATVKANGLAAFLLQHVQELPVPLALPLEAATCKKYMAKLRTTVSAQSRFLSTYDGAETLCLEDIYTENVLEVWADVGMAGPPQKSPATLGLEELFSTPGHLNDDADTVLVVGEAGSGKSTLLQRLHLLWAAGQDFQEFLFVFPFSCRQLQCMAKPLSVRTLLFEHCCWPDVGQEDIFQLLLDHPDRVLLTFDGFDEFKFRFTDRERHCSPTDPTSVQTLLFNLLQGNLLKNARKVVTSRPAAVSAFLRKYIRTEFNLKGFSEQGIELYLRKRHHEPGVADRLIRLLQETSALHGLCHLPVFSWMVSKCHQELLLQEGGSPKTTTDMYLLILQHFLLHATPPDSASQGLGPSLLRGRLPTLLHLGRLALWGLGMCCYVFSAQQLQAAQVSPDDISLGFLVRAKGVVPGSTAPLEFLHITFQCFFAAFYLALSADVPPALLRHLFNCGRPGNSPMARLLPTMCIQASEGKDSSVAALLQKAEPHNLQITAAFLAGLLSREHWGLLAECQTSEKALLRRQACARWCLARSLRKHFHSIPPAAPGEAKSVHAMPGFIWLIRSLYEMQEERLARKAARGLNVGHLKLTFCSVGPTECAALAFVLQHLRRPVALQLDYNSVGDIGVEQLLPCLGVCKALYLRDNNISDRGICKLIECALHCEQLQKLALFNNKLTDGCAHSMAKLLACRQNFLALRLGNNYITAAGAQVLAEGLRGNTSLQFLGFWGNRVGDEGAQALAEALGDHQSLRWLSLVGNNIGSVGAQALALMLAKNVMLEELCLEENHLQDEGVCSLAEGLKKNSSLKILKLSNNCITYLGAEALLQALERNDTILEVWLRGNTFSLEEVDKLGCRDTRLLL

Row | Structure (SMILES) | EC50 (NOD2) | NOD2 activity at 2 μM (fold increase) (NOD2; 18 h, mean ± SEM) | EC50 (NOD2; [1]) | Improvement in potency over 32 (NOD2; ratio of EC50 versus compound 32) | Modulation of interferon-stimulated genes (ISGs) (PBMCs) | Number of genes with significantly modulated expression (PBMCs) | Number of differentially expressed genes: down-regulated (PBMCs) | Number of differentially expressed genes: up-regulated (PBMCs) | Diminished activity by a factor, relative to 74 (NOD2; ratio of EC50 versus compound 74)
1 | CCCCCCCCCCCCCCCCCC(=O)Oc1ccc(/C=C/C(=O)NCC(=O)N[C@H](C(=O)N[C@H](CCC(=O)OCC)C(=O)OCC)[C@@H](C)O)cc1OC [Compound 81, Diethyl ((E)-3-(3-Methoxy-4-(stearoyloxy)phenyl)acryloyl)glycyl-L-threonyl-D-glutamate] | 1.45 µM | 1.96 ± 0.01 fold increase | 1.45 ± 0.15 µM | 10 fold | – | – | – | – | –
2 | COc1cc(/C=C/C(=O)NCC(=O)N[C@H](C(=O)N[C@H](CCC(=O)OC2CCCC2)C(=O)OC2CCCC2)C(C)C)ccc1O [Compound 68, Dicyclopentyl ((E)-3-(4-Hydroxy-3-methoxyphenyl)acryloyl)glycyl-L-valyl-D-glutamate] | – | – | – | – | up-regulation of several interferon-stimulated genes | 445 genes | 215 genes | 230 genes | –
3 | CCCCCCCCCCCCCCCCCC(=O)Oc1ccc(/C=C/C(=O)NCC(=O)N[C@H](C(=O)N[C@H](CCC(=O)OCC)C(=O)OCC)C(C)C)cc1OC [Compound 75, Diethyl ((E)-3-(3-Methoxy-4-(stearoyloxy)phenyl)acryloyl)glycyl-L-valyl-D-glutamate] | 2.83 µM | 2.37 ± 0.01 fold increase | 2.83 ± 0.206 µM | – | – | 270 genes | 143 genes | 127 genes | 90
